Source: patent US8507489B2, “Bicyclic triazoles as protein kinase modulators” (SGX Pharmaceuticals, Inc., priority 2006, dated 2013)
Structures can show the parent of a compound that is named as a salt.

Key:
GTL16 cells = assay: 96-well XTT cell survival assay (GTL16 cells); assay type: cell-based
Method: GTL16 cells were maintained in DMEM Medium supplemented with 10% fetal bovine serum (FBS) 2 mM L-Glutamine and 100 units penicillin/100 μg streptomycin, at 37° C. in 5% CO2.
Compounds were tested in the following assays in duplicate.
96-well XTT assay (GTL16 cells): One day prior to assay the growth media was aspirated off and assay media was added to cells. On the day of the assay, the cells were grown in assay media containing various concentrations of compounds (duplicates) on a 96-well flat bottom plate for 72 hours at 37° C. in 5% CO2. The starting cell number was 5000 cells per well and volume was 120 μl. At the end of the 72-hour incubation, 40 μl of XTT labeling mixture (50:1 solution of sodium 3′-[1-(phenylaminocarbonyl)-3,4-tetrazolium]-bis (4-methoxy-6-nitro) benzene sulfonic acid hydrate and Electron-coupling reagent: PMS (N-methyl dibenzopyrazine methyl sulfate) were added to each well of the plate. After an additional 5 hours of incubation at 37° C., the absorbance reading at 450 nm with a background correction of 650 nm was measured with a spectrophotometer.

c-MET = c-MET (Homo sapiens, UniProt P08581); assay: MET luminescence-based enzyme assay (Kinase-Glo); assay type: biochemical
Method: The subscript designates positive or negative controls. The Z′ score for a robust screening assay should be ≧0.50. The typical threshold=μ+−3*σ+. Any value that falls below the threshold was designated a “hit”.
MET Luminescence-Based Enzyme Assay
MET kinase (see below), Kinase-Glo™ (Promega Cat#V6712).
Negative controls contained 10 μM staurosporine.

Chain of c-MET (P08581 1078-1345 limits assumed): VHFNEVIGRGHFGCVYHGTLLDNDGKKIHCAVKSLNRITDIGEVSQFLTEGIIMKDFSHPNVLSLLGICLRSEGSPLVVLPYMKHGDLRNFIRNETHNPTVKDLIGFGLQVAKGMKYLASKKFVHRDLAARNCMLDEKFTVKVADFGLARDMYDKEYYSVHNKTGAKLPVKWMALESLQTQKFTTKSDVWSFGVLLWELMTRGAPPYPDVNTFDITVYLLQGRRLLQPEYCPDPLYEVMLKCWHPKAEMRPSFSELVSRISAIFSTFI

| IC50 (c-MET) | Compound | IC50 (GTL16 cells; Homo sapiens, GTL 16, 72 hours) | IC50 (GTL16 cells; 72 hours) |
| --- | --- | --- | --- |
| 100 to 1000 nM | Fc1cccc(-c2ccc3nnc(Sc4ccc5ncsc5c4)n3n2)c1 [Compound 6, 3-(Benzothiazol-6-ylsulfanyl)-6-(3-fluoro-phenyl)-[1,2,4]triazolo[4,3-b]pyridazine] | 100 to 1000 nM |  |
| < 100 nM | CCN1CC(Cn2cc(-c3cnc4ccc(Sc5nnc6ccc(C)nn56)cc4c3)cn2)C1 [Compound 67, 3-[1-(1-Ethyl-azetidin-3-ylmethyl)-1H-pyrazol-4-yl]-6-(6-methyl-[1,2,4]triazolo[4,3-b]pyridazin-3-ylsulfanyl)-quinoline] | ≤ 100 nM |  |
| < 100 nM | Fc1cccc(-c2ccc3nnc(Sc4ccc5ncccc5c4)n3n2)c1 [Compound 5, 6-[6-(3-Fluoro-phenyl)-[1,2,4]triazolo[4,3-b]pyridazin-3-ylsulfanyl]-quinoline] | ≤ 100 nM |  |
| < 100 nM | Cn1cc(-c2ccc3nnc(Sc4ccc5ncsc5c4)n3n2)cn1 [Compound 14, 3-(Benzothiazol-6-ylsulfanyl)-6-(1-methyl-1H-pyrazol-4-yl)-[1,2,4]triazolo[4,3-b]pyridazine] | ≤ 100 nM |  |
| < 100 nM | Cn1cc(-c2ccc3nnc(Sc4cc5cccnc5cc4F)n3n2)cn1 [Compound 10, 7-Fluoro-6-[6-(1-methyl-1H-pyrazol-4-yl)-[1,2,4]triazolo[4,3-b]pyridazin-3-ylsulfanyl]-quinoline] | ≤ 100 nM |  |
| < 100 nM | CNc1ccc2nnc(Sc3ccc4ncc(-c5cnn(C)c5)cc4c3)n2n1 [Compound 68, Methyl-{3-[3-(1-methyl-1H-pyrazol-4-yl)-quinolin-6-ylsulfanyl]-[1,2,4]triazolo[4,3-b]pyridazin-6-yl}-amine] | ≤ 100 nM |  |
| 1000 to 10000 nM | Fc1cccc(-c2ccc3nnc(Sc4ccc5nncn5c4)n3n2)c1 [Compound 7, 6-(3-Fluoro-phenyl)-3-([1,2,4]triazolo[4,3-a]pyridin-6-ylsulfanyl)-[1,2,4]triazolo[4,3-b]pyridazine] | 1000 to 10000 nM |  |
| < 100 nM | Cn1cc(-c2ccc3nnc(Sc4ccc5ncc(NC(=O)OC(C)(C)C)cc5c4)n3n2)cn1 [Compound 35, {6-[6-(1-Methyl-1H-pyrazol-4-yl)-[1,2,4]triazolo[4,3-b]pyridazin-3-ylsulfanyl]-quinolin-3-yl}-carbamic acid tert-butyl ester] | ≤ 100 nM |  |
| 100 to 1000 nM | CN(C)CCn1cnc2ccc(Sc3nnc4ccc(-c5cnn(C)c5)nn34)cc21 [Compound 32, Dimethyl-(2-{6-[6-(1-methyl-1H-pyrazol-4-yl)-[1,2,4]triazolo[4,3-b]pyridazin-3-ylsulfanyl]-benzoimidazol-1-yl}-ethyl)-amine, formic acid salt] | 1000 to 10000 nM |  |
| 100 to 1000 nM | Cn1cc(-c2ccc3nnc(Sc4ccc5ncccc5c4[N+](=O)[O-])n3n2)cn1 [Compound 13, 6-[6-(1-Methyl-1H-pyrazol-4-yl)-[1,2,4]triazolo[4,3-b]pyridazin-3-ylsulfanyl]-5-nitro-quinoline] | 100 to 1000 nM |  |
| < 100 nM | Cc1ccc2nnc(Sc3ccc4ncc(-c5cnn(CC6CN(C(=O)OC(C)(C)C)C6)c5)cc4c3)n2n1 [Compound 65, 3-{4-[6-(6-Methyl-[1,2,4]triazolo[4,3-b]pyridazin-3-ylsulfanyl)-quinolin-3-yl]-pyrazol-1-ylmethyl}-azetidine-1-carboxylic acid tert-butyl ester] | ≤ 100 nM |  |
| < 100 nM | Cc1ccc2nnc(Sc3c[nH]c4ncc(-c5cnn(C)c5)cc34)n2n1 [Compound 53, 6-Methyl-3-[5-(1-methyl-1H-pyrazol-4-yl)-1H-pyrrolo[2,3-b]pyridin-3-ylsulfanyl]-[1,2,4]triazolo[4,3-b]pyridazine] | 100 to 1000 nM |  |
| < 100 nM | CNC(=O)c1ccc(-c2ccc3nnc(Sc4cc5cccnc5cc4C)n3n2)cc1F [Compound 18, 2-Fluoro-N-methyl-4-[3-(7-methyl-quinolin-6-ylsulfanyl)-[1,2,4]triazolo[4,3-b]pyridazin-6-yl]-benzamide] | ≤ 100 nM |  |
| < 100 nM | CCn1cc(-c2cnc3ccc(Sc4nnc5ccc(C)nn45)cc3c2)cn1 [Compound 66, 3-(1-Ethyl-1H-pyrazol-4-yl)-6-(6-methyl-[1,2,4]triazolo[4,3-b]pyridazin-3-ylsulfanyl)-quinoline] | ≤ 100 nM |  |
| < 100 nM | Cc1ccc2nnc(Sc3ccc4ncc(-c5cnn(CC(=O)O)c5)cc4c3)n2n1 [Compound 42, {4-[6-(6-Methyl-[1,2,4]triazolo[4,3-b]pyridazin-3-ylsulfanyl)-quinolin-3-yl]-pyrazol-1-yl}-acetic acid] | 1000 to 10000 nM |  |
| < 100 nM | Cn1cc(-c2ccc3nnc(Sc4ccc5ncn(C)c5c4)n3n2)cn1 [Compound 25, 3-(3-Methyl-3H-benzoimidazol-5-ylsulfanyl)-6-(1-methyl-1H-pyrazol-4-yl)-[1,2,4]triazolo[4,3-b]pyridazine] | ≤ 100 nM |  |
| < 100 nM | COCCn1cnc2ccc(Sc3nnc4ccc(-c5cnn(C)c5)nn34)cc21 [Compound 31, 3-[3-(2-Methoxy-ethyl)-3H-benzoimidazol-5-ylsulfanyl]-6-(1-methyl-1H-pyrazol-4-yl)-[1,2,4]triazolo[4,3-b]pyridazine] | 100 to 1000 nM |  |
| < 100 nM | (2:1) mixture of 3-(7-Methyl-benzothiazol-6-ylsulfanyl)-6-(1-methyl-1H-pyrazol-4-yl)-[1,2,4]triazolo[4,3-b]pyridazine and 3-(5-Methyl-benzothiazol-6-ylsulfanyl)-6-(1-methyl-1H-pyrazol-4-yl)-[1,2,4]triazolo[4,3-b]pyridazine [Compound 8] |  | ≤ 100 nM |
| < 100 nM | Cc1ccc2nnc(Sc3ccc4ncc(-c5cnn(C(C)(C)C(=O)O)c5)cc4c3)n2n1 [Compound 45, 2-Methyl-2-{4-[6-(6-methyl-[1,2,4]triazolo[4,3-b]pyridazin-3-ylsulfanyl)-quinolin-3-yl]-pyrazol-1-yl}-propionic acid] | 1000 to 10000 nM |  |
| < 100 nM | CCn1cnc2ccc(Sc3nnc4ccc(-c5cnn(C)c5)nn34)cc21 [Compound 30, 3-(3-Ethyl-3H-benzoimidazol-5-ylsulfanyl)-6-(1-methyl-1H-pyrazol-4-yl)-[1,2,4]triazolo[4,3-b]pyridazine] | ≤ 100 nM |  |
| < 100 nM | c1cnc2ccc(Sc3nnc4ccc(-c5cn[nH]c5)nn34)cc2c1 [Compound 39, 6-[6-(1H-Pyrazol-4-yl)-[1,2,4]triazolo[4,3-b]pyridazin-3-ylsulfanyl]-quinoline] | 100 to 1000 nM |  |
| 100 to 1000 nM | Cn1cc(-c2ccc3nnc(Sc4ccc5ncncc5c4)n3n2)cn1 [Compound 12, 6-[6-(1-Methyl-1H-pyrazol-4-yl)-[1,2,4]triazolo[4,3-b]pyridazin-3-ylsulfanyl]-quinazoline] | 100 to 1000 nM |  |
| < 100 nM | Cc1ccc2nnc(Sc3ccc4ncc(-c5cnn(C6CNC6)c5)cc4c3)n2n1 [Compound 62, 3-(1-Azetidin-3-yl-1H-pyrazol-4-yl)-6-(6-methyl-[1,2,4]triazolo[4,3-b]pyridazin-3-ylsulfanyl)-quinoline] | ≤ 100 nM |  |
| < 100 nM | Cn1cc(-c2ccc3nnc(Sc4ccc5ncccc5c4F)n3n2)cn1 [Compound 55, 5-Fluoro-6-[6-(1-methyl-1H-pyrazol-4-yl)-[1,2,4]triazolo[4,3-b]pyridazin-3-ylsulfanyl]-quinoline] | ≤ 100 nM |  |
| < 100 nM | Cn1cc(-c2ccc3nnc(Sc4cc5scnc5cc4F)n3n2)cn1 [Compound 15, 3-(5-Fluoro-benzothiazol-6-ylsulfanyl)-6-(1-methyl-1H-pyrazol-4-yl)-[1,2,4]triazolo[4,3-b]pyridazine] | ≤ 100 nM |  |
| < 100 nM | Cc1ccc2nnc(Sc3ccc4ncc(-c5cnn(C6CN(C(=O)OC(C)(C)C)C6)c5)cc4c3)n2n1 [Compound 64, 3-{4-[6-(6-Methyl-[1,2,4]triazolo[4,3-b]pyridazin-3-ylsulfanyl)-quinolin-3-yl]-pyrazol-1-yl}-azetidine-1-carboxylic acid tert-butyl ester] | ≤ 100 nM |  |
| < 100 nM | Cc1ccc2nnc(Sc3ccc4ncc(-c5cnn(C6CN(C)C6)c5)cc4c3)n2n1 [Compound 63, 3-[1-(1-Methyl-azetidin-3-yl)-1H-pyrazol-4-yl]-6-(6-methyl-[1,2,4]triazolo[4,3-b]pyridazin-3-ylsulfanyl)-quinoline] | ≤ 100 nM |  |
| < 100 nM | CNC(=O)c1ccc(-c2ccc3nnc(Sc4ccc5ncccc5c4)n3n2)cc1F [Compound 11, 2-Fluoro-N-methyl-4-[3-(quinolin-6-ylsulfanyl)-[1,2,4]triazolo[4,3-b]pyridazin-6-yl]-benzamide] | 100 to 1000 nM |  |
